# According to patent publication US20100210534A1, “USE OF A PEPTIDE AS A THERAPEUTIC AGENT” (priority 2007, published 2010):
# No end group written: not given here.
# How the values were obtained:
# [1] = test system: HCMV strain AD169; assay: HCMV plaque formation assay in MRC-5 cells; settings: for inhibition of HCMV plaque formation as compared to the virus control: 10 micrograms per ml, 7-10 days
# [2] = test system: hepatitis B virus (HBV) ayw strain; assay: HBV assay in HepG2-2.2.15 cells (secreted HBV DNA by TaqMan PCR); type: cell-based; settings: 10 micrograms per ml, six days, HBV DNA in supernatant
# [3] = test system: HUVEC; assay: Endothelial tube formation assay; settings: 10 micrograms per ml, 20 hours, combination peptide 1: peptide 2 0.95 mole: 1.05 mole
# Description: The endothelial tube formation assay is based on the ability of endothelial cells to form three-dimensional capillary-like tubular structures when cultured on a gel of basement membrane extract. […] Pre-labeled HUVEC with Calcein AM were seeded in a 96-well culture plate coated with extracellular metrix (Chemicon international Cat. ECM625) and treated with test peptides—10 micrograms per ml—in full growth medium. Positive control was vehicle only. The endothelial cells were allowed to form tubes foe 20 hours and were then examined under an inverted fluorescent microscope. Duplicate wells for each treatment were photographed and quantitatevily analyzed for an average tubule length using image analysis software ImageProPlus. Raw data were expressed as average tubule lenghs in pixels±standard deviation. Statistic p values were computed using the Student's t-test.
# [4] = test system: Primary Human endothelial cells (HUVEC); assay: Endothelial cell migration assay; settings: 10 micrograms per ml, 22 hours, combination peptide 1: peptide 2 0.95 mole: 1.05 mole
# Description: Primary Human endothelial cells (HUVEC) were seeded in insert chambers with 3 micrometer pore size of multi-transwell plate for 6 hours at 37° C. in Endothelial Cell Basal Medium (EBM) supplemented with 0.1% bovine serum albumin. Thereafter, designated concentration of testing peptides—10 micrograms per ml—was added in duplicate wells. The endothelia were allowed to migrate for 22 hours at 37° C., then, migrated cells were fixed and stained with Hoechst 33342 dye. Images of 3 fields per insert were taken and the number of migrated cells per field were quantified using the ImageProPlus software. Data were analyzed for the average number of the migrated cells and standard deviation of six data points for each treatment condition. […] Statistic p values were computed using the Student's t-test.
# [5] = test system: spleen cells of Ovalbumin-immunized Balb/c mice; assay: Th1/Th2 cytokine profiling assay (Ovalbumin-restimulated spleen cells, CBA kit); settings: 10 micrograms per ml; Ovalbumin restimulation, 72 hours
# Excerpt: The Balb/c mice (originated in 1923, it is a popular strain and is used in many different research disciplines. Also classified as an inbred from the production of 20 or more successive brother-sister matings, the Balb/c mouse is albino and small in size) were immunized on Days 1, 15, and 29 with Ovalbumin (Ovalbumin is the main protein found in egg white, commonly used to stimulate an immunological reaction in test animals) in PBS (5 micrograms/injection). On day 50, spleens of the mice were harvested (3 weeks after last boost with Ovalbumin). […] Thereafter, additional Ovalbumin was added to the cells at 10 micrograms/ml for in vitro restimulation of the cells. 72 hours later, cell supernatants were harvested and assayed using the Becton Dickinson Mouse Th1/Th2 Cytokine CBA Kit.
# [6] = test system: HIV-1IIIB; assay: HIV-1 antiviral assay in CEM-SS cells (MTS readout of virus-induced cell killing); type: cell-based
Compound,"antiviral activity of positive control compound (HCMV) ([1]; positive control, HCMV AD169)",inhibition of HBV replication as compared to the virus control infection [2] [%],inhibition of the tube formation endothelial cells [3],inhibition of the migration of human endothelial cells [4],inhibition of HCMV plaque formation as compared to the virus control [1],IFNγ spleen cells; TH1 response (% of control) [5],IL-2 spleen cells (% of control) [5],IL-4 spleen cells; TH2 response (% of control) [5],IL-5 spleen cells; TH2 response (% of control) [5],TNF-a spleen cells; TH1 response (% of control) [5],antiviral activity of positive control compounds (HIV-1) [6]
"Nc1nc(O)c2ncn(COC(CO)CO)c2n1 [Ganciclovir, reference compound]",expected levels of antiviral activity,,,,,,,,,,
Ala-Ala-Val-Ala-Leu-Leu-Pro-Ala-Val-Leu-Leu-Ala-Leu-Leu-Ala-Pro-Val-Gln-Arg-Lys-Arg-Gln-Lys-Leu-Met-Pro-OH (AAVALLPAVLLALLAPVQRKRQKLMP-OH) [Peptide 1],,40.7,did not inhibit,did not inhibit,did not inhibit,63.7 % of control,153.6 % of control,118.2 % of control,74.6 % of control,108.5 % of control,
Arg-Val-Tyr-Ile-His-Pro-Phe-OH (RVYIHPF-OH) [Peptide 2],,44.1,3%,did not inhibit,did not inhibit,126.8 % of control,119.1 % of control,117.2 % of control,69.6 % of control,106.3 % of control,
Cc1cn([C@H]2C[C@H](N=[N+]=[N-])[C@@H](CO)O2)c(=O)[nH]c1=O [AZT],,,,,,,,,,,expected levels of antiviral activity
CC(C)(C)NC(=O)[C@@H]1CN(Cc2cccnc2)CCN1C[C@@H](O)C[C@@H](Cc1ccccc1)C(=O)N[C@H]1c2ccccc2C[C@H]1O [indinavir],,,,,,,,,,,expected levels of antiviral activity
